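Assay format: 96-well plates, 48-hour exposure. The concentration for full growth arrest is given as TGI.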
Tests used:
Experiment in all cases: NCI anticancer screen, dose series, 48 h
786-0 renal = tested on: 786-0 renal
A498 renal = tested on: A498 renal
A549 NSCLC = tested on: A549 NSCLC
ACHN renal = tested on: ACHN renal
BT-549 breast = tested on: BT-549 breast
CCRF-CEM leukemia = tested on: CCRF-CEM leukemia
COLO 205 colon = tested on: COLO 205 colon
EKVX NSCLC = tested on: EKVX NSCLC
HCC-2998 colon = tested on: HCC-2998 colon
HCT-116 colon = tested on: HCT-116 colon
HCT-15 colon = tested on: HCT-15 colon
HL-60(TB) leukemia = tested on: HL-60(TB) leukemia
HOP-62 NSCLC = tested on: HOP-62 NSCLC
HOP-92 NSCLC = tested on: HOP-92 NSCLC
HS 578T breast = tested on: HS 578T breast
HT29 colon = tested on: HT29 colon
IGROV1 ovarian = tested on: IGROV1 ovarian
K-562 leukemia = tested on: K-562 leukemia
KM12 colon = tested on: KM12 colon
LOX IMVI melanoma = tested on: LOX IMVI melanoma
M14 melanoma = tested on: M14 melanoma
MALME-3M melanoma = tested on: MALME-3M melanoma
MCF7 breast = tested on: MCF7 breast
MDA-MB-231 breast = tested on: MDA-MB-231 breast
MDA-MB-435 = tested on: MDA-MB-435
MDA-N = tested on: MDA-N
MOLT-4 leukemia = tested on: MOLT-4 leukemia
NCI-H226 lung = tested on: NCI-H226 lung
NCI-H23 lung = tested on: NCI-H23 lung
NCI-H460 lung = tested on: NCI-H460 lung
NCI-H522 lung = tested on: NCI-H522 lung
NCI/ADR-RES ovarian = tested on: NCI/ADR-RES ovarian
OVCAR-3 ovarian = tested on: OVCAR-3 ovarian
OVCAR-4 ovarian = tested on: OVCAR-4 ovarian
OVCAR-5 ovarian = tested on: OVCAR-5 ovarian
OVCAR-8 ovarian = tested on: OVCAR-8 ovarian
PC-3 prostate = tested on: PC-3 prostate
RPMI-8226 leukemia = tested on: RPMI-8226 leukemia
RXF 393 renal = tested on: RXF 393 renal
SF-268 CNS = tested on: SF-268 CNS
SF-295 CNS = tested on: SF-295 CNS
SF-539 CNS = tested on: SF-539 CNS
SK-MEL-2 melanoma = tested on: SK-MEL-2 melanoma
SK-MEL-28 melanoma = tested on: SK-MEL-28 melanoma
SK-MEL-5 melanoma = tested on: SK-MEL-5 melanoma
SK-OV-3 ovarian = tested on: SK-OV-3 ovarian
SN12C renal = tested on: SN12C renal
SNB-19 CNS = tested on: SNB-19 CNS
SNB-75 CNS = tested on: SNB-75 CNS
SR leukemia = tested on: SR leukemia
SW-620 colon = tested on: SW-620 colon
T-47D breast = tested on: T-47D breast
TK-10 renal = tested on: TK-10 renal
U251 CNS = tested on: U251 CNS
UACC-257 melanoma = tested on: UACC-257 melanoma
UACC-62 melanoma = tested on: UACC-62 melanoma
UO-31 renal = tested on: UO-31 renal
CAKI-1 renal = tested on: CAKI-1 renal
DU-145 prostate = tested on: DU-145 prostate

Measured: TGI

O=C(O)c1cc2ccc3ccccc3c2oc1=O
not listed: CAKI-1 renal | DU-145 prostate
> 100 µM: all other assays above

COc1cc(CO)c(CC(=O)NCCCc2ccccc2)cc1OC
not listed: MCF7 breast | NCI-H522 lung | RPMI-8226 leukemia | RXF 393 renal | SF-268 CNS | SF-295 CNS | SF-539 CNS | SK-OV-3 ovarian
> 100 µM: all other assays above
